Results as given in BindingDB's records for patent US20240246937 (Merck Sharp & Dohme, 2024).

Target: T1, L-amino-acid oxidase (Homo sapiens, UniProt Q96RQ9)
T1 sequence (Q96RQ9 whole entry): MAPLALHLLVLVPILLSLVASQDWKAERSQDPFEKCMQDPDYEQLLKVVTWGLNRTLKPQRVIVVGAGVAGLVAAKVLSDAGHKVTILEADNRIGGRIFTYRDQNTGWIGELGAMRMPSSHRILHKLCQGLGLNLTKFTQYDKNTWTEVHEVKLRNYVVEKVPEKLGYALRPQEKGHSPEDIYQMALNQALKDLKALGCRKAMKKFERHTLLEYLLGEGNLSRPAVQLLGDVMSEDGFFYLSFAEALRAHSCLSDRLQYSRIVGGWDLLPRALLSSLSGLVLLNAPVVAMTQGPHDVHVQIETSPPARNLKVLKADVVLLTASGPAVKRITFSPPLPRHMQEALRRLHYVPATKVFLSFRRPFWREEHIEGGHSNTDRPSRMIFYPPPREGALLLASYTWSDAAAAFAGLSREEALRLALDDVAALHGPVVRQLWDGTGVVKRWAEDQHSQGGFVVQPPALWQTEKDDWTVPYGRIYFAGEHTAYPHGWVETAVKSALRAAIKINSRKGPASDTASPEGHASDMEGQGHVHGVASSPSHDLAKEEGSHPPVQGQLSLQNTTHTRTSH
Assay: IL4I1 Enzymatic Assay
Experimental: Using this assay, the potency (EC50) of each compound was determined from a ten-point (1:3 serial dilution) titration curve using the following outlined procedure. To each well of a black flat-bottom Greiner (Cat #781076) 384 well-plate, 25 nL of compound (0.1% DMSO in final assay volume of 25 μL) was dispensed, followed by the addition of 12.5 μL of 1× assay buffer (50 mM Hepes 7.0 and 0.005% Tween20 (Sigma, Cat #P8341; low peroxide grade)) containing 2 nM of recombinant IL4I1 (R&D Systems, Cat #5684-AO-020). Plates were placed in an ambient temperature humidified chamber for a four-hour pre-incubation with compound. Subsequently, each reaction was initiated by the addition of 12.5 μL 1× assay buffer containing 2 mM of each aromatic amino acids (Phe/Tyr/Trp), 0.1 mM Amplex Red and 2 U/mL of HRP. The final reaction in each well of 25 μL consisted of 1 nM of IL4I1, 1 mM of each residues (Phe, Tyr and Trp), 0.05 mM Amplex Red and 1 U/mL of HRP. It should be noted that the concentrations of Amplex Red and HRP used here were in excess such that the conversion of H2O2 to resorufin product occurred

For CC1CC(N2CCN(Cc3nnc(-c4ccccc4)s3)C(=O)C2=O)C1 (stereo unspecified) [US20240246937, Example 289], the EC50 was 6 nM.
